Reference: patent US12202826B2, “N-pyridinyl acetamide derivatives as inhibitors of the Wnt signaling pathway” (Redx Pharma PLC, priority 2014, dated 2025)

Columns and labels:
[1] = Dual-Cell β-Catenin Reporter Assay; type: cell-based, Mouse; details: Mus musculus, luciferase signal reduced to 50% of DMSO control
Method: (§1) Dual-Cell β-Catenin Reporter Assay
(§2) Mouse L cells transfected to constitutively produce biologically active murine Wnt-3a, referred to as L-Wnt cells, were purchased from the American Type Culture Collection, ATCC, Manassas, VA (ATCC). These cells were cultured in DMEM supplemented with 10% FCS (Gibco/Invitrogen, Carlsbad, CA), 1% geneticin and 1% sodium pyruvate (Sigma) at 37° C. with 5% CO2. The cells were seeded into 96 well plates and treated with serial dilutions of compound diluted to 0.1% DMSO concentration. After 24 hours, cell supernatants were transferred to a 96 well plate previously seeded with Leading Light® Wnt Reporter Cells, stably transfected with a luciferase gene under control of Wnt pathway response elements. After a further 24 hours, cells are treated with One-glo luciferase assay system (Promega, Madison, WI) and the luminescent signal read by envision. The IC50 of the compound is determined as the concentration that reduces the induced luciferase signal to 50% of the DMSO control.
(§3) The category “+” refers to compounds with an IC50 of >100 μM. The category “++” refers to compounds with an IC50 of 5 to 100 μM. The category “+++” refers to compounds with an IC50<5 μM.

[2] = tested on: L-Wnt cells (murine Wnt-3a) / Leading Light Wnt Reporter Cells (luciferase under control of Wnt pathway response elements); test: Dual-Cell β-Catenin Reporter Assay; type: cell-based, Mouse; details: luciferase signal reduced to 50% of DMSO control
Method: as §1, §2, §3

| Structure (SMILES) | IC50 ([2]; category of IC50) | other results |
| --- | --- | --- |
| Cc1c(-c2ccnc(C(F)(F)F)c2)ncn1CC(=O)Nc1ccc(-c2ccc(C#N)cc2)cn1 [compound 107] | – | IC50 ([1]; category of IC50): < 5 nM; IC50 [1]: 0.05 nM |
| Cc1c(-c2ccnc(C(F)(F)F)c2)ncn1CC(=O)Nc1ccc(-c2cnccn2)cn1 [compound 74] | – | IC50 ([1]; category of IC50): < 5 nM; IC50 [1]: 0.05 nM |
| Cc1cc(-c2cnn(CC(=O)Nc3ccc(-c4cnccn4)cn3)c2)ccn1 [compound 3] | – | IC50 ([1]; category of IC50): 5 to 100 nM; IC50 [1]: 12.2 nM |
| Cc1cc(-c2nn(CC(=O)Nc3ccc(-c4cnccn4)cn3)cc2C)ccn1 [compound 75] | – | IC50 ([1]; category of IC50): < 5 nM; IC50 [1]: 0.61 nM |
| CC(C)(C)OC(=O)N1CCN(c2ccc(NC(=O)Cn3cnc(-c4ccnc(C(F)(F)F)c4)c3)nc2)CC1 [compound 6] | – | IC50 ([1]; category of IC50): < 5 nM; IC50 [1]: 0.91 nM |
| Cn1nccc1-c1csc(CC(=O)Nc2ccc(-c3cnccn3)cn2)c1 [compound 31] | 5 to 100 nM | – |
| Cc1nn(CC(=O)Nc2ccc(-c3ccnc(N(C)C)c3)cn2)cc1-c1ccnc(C(F)(F)F)c1 [compound 94] | 5 to 100 nM | – |
| O=C(Cn1cnc(C2=CCNCC2)c1)Nc1ccc(-c2cnccn2)cn1 [compound 42] | > 100 nM | – |
| Cn1nccc1-c1cn(CC(=O)Nc2ccc(-c3cnccn3)cn2)cn1 [compound 32] | > 100 nM | – |
| Cc1cn(CC(=O)Nc2ccc(-c3cnccn3)cn2)nc1-c1ccnc(C(F)(F)F)c1 [compound 67] | < 5 nM | – |
| Cc1nn(CC(=O)Nc2ccc(-c3ccc(C#N)cc3)cn2)c(C)c1-c1ccnc(C(F)(F)F)c1 [compound 54] | – | IC50 ([1]; category of IC50): < 5 nM; IC50 [1]: 0.14 nM |
| Cc1nn(CC(=O)Nc2ncc(-c3cnccn3)cc2F)c(C)c1-c1ccnc(C(F)(F)F)c1 [compound 73] | 5 to 100 nM | – |
| Cc1noc(C)c1-c1cnn(CC(=O)Nc2ccc(-c3cnccn3)cn2)c1 [compound 36] | 5 to 100 nM | – |
| Cc1nccc(-c2cnn(CC(=O)Nc3ccc(-c4cnccn4)cn3)c2)n1 [compound 38] | 5 to 100 nM | – |
| COc1ccc(-c2c(C)nn(CC(=O)Nc3ccc(-c4cnccn4)cn3)c2C)cn1 [compound 64] | 5 to 100 nM | – |
| O=C(Cn1cc(-c2cn[nH]c2)cn1)Nc1ccc(-c2cnccn2)cn1 [compound 33] | > 100 nM | – |
| Cc1nn(CC(=O)Nc2ccc(-c3ncccn3)cn2)c(C)c1C1=CC(C)OC(C)C1 (centres unmarked) [compound 85] | 5 to 100 nM | – |
| Cc1cc(-c2csc(CC(=O)Nc3ccc(-c4cnccn4)cn3)c2)ccn1 [compound 24] | < 5 nM | – |
| O=C(Cn1cnc(-c2ccnc(C(F)(F)F)c2)c1)Nc1ccc(-c2cncnc2)nc1 [compound 11] | > 100 nM | – |
| O=C(Cc1cc(-c2ccnc(C(F)(F)F)c2)cs1)Nc1ccc(-c2cnccn2)cn1 [compound 23] | < 5 nM | IC50 [2]: 0.34 nM |
| Cc1nn(C(=O)C(C)(C)Nc2ccc(-c3cnccn3)cn2)c(C)c1C1=CCCOC1 [compound 83] | 5 to 100 nM | – |
| Cc1c(-c2ccnc(C(F)(F)F)c2)ncn1CC(=O)Nc1ccc(-c2cncnc2)cn1 [compound 104] | < 5 nM | – |
